Data from patent US20140308733A1, “METHOD FOR INDUCING GERMINATION OF SPORE FORMING BACTERIUM” (CALPIS CO., LTD., priority 2011, published 2014).

Test system: Bacillus subtilis C-3102 (FERM BP-1096)
Test: Germination induction by ferulic acid, vanillic acid or p-coumaric acid at 300 ppm, turbidity change (Example 3)
Format: cell-based
Details: for turbidity (630 nm): 37° C., 150 rpm
Procedure: In each 500 mL of distilled water heated to 70° C. was added 0.3 g of ferulic acid, vanillic acid, or p-coumaric acid. After dissolving with stirring using a stirring rod with a propeller, filtration sterilization (0.45 μm filter) was conducted to prepare each 600 ppm-solution.
Next, 500 μL aliquots of bacterial suspension of Bacillus subtilis C-3102 (FERM BP-1096) prepared by a similar method as in Example 1 were mixed with 500 μL of each of the ferulic acid, vanillic acid, and p-coumaric acid solutions, and the mixtures were adjusted to 300 ppm of ferulic acid, vanillic acid, or p-coumaric acid concentration. Defining the time point of mixing as the reaction initiation (0 min), and continuing shaking (150 rpm) at 37° C., the turbidity (630 nm) was measured at 10, 20, 30, 40, 50, 60, 90, 120, and 180 min after the reaction initiation.

Structure (SMILES): O=C(O)/C=C/c1ccc(O)cc1 [p-Coumaric acid, p-coumaric acid]
- germination confirmed by turbidity decrease: decreased, thereby to confirm germination
- turbidity (630 nm) (0 min after reaction initiation): 0.545
- turbidity (630 nm) (10 min after reaction initiation): 0.523
- turbidity (630 nm) (20 min after reaction initiation): 0.506
- turbidity (630 nm) (30 min after reaction initiation): 0.488
- turbidity (630 nm) (40 min after reaction initiation): 0.475
- turbidity (630 nm) (50 min after reaction initiation): 0.460
- turbidity (630 nm) (60 min after reaction initiation): 0.420
- turbidity (630 nm) (90 min after reaction initiation): 0.392
- turbidity (630 nm) (120 min after reaction initiation): 0.360
- turbidity (630 nm) (180 min after reaction initiation): 0.319
